Assay results: patent US9085531B2 (priority 2004, dated 2015)
Structures can show the parent of a compound that is named as a salt.

Tests used:
[1] = system: tetrabenazine-induced exploratory loss and ptosis in mice; experiment: Tetrabenazine assay; details: mouse, in vivo

Row | Structure (SMILES) | activity in the tetrabenazine assay [1] | melting point
1 | CN1Cc2c(N)cccc2C(c2ccccc2)C1 (stereo not shown) [Nomifensine] | potent biological activity | 
2 | COC(=O)C(c1ccccc1)C1CCCCN1.Cl (stereo not shown) [Ritalin®] | potent activity | 
3 | CN1Cc2cc(-c3cccnn3)ccc2C(c2cc3ccccc3s2)C1 (stereo not shown) (as salt: maleate) |  | 100 to 104 °C
4 | CN1Cc2ccccc2C(C2=Cc3ccccc3CCC2)C1 (stereo not shown) (as salt: maleate) |  | 178 to 180 °C
